Tests used:
Type in all cases: biochemical
TAF1L(h) = target: T1, TAF1L(h) (Homo sapiens, UniProt Q8IZX4); assay: radiometric kinase assay (KinaseProfiler, Eurofins), TAF1L; conditions: in vitro radiometric kinase assay, tested at 1 nM to 10 000 nM, no pre-incubation; read-out: inhibitory activities (IC50 values) TAF1L
T1 construct: purchased Eurofins (KinaseProfiler)
Method: (§1) The compounds were profiled in the radiometric assays (KinaseProfiler, Eurofins).
(§2) Briefly, kinases were diluted in the buffer shown below prior to addition to the reaction mix: • CDKL3, TAF1L: 20 mM Tris/HCl pH 8.5, 0.2 mM EDTA, 0.1% β-mercaptoethanol, 0.01% Brij-35, 5% glycerol, 1 mg/ml BSA; • Haspin: 15 mM MOPS, 0.75 mM EDTA, 0.0075% Brij-35, 3.75% Glycerol, 150 mM NaCl, 0.1% β-mercaptoethanol, 1 mg/mLBSA; • CDKL4, CLK2, PIM1, TRB2: […], 1 mM EDTA, 0.01% Brij-35, 5% Glycerol, 0.1% β-mercaptoethanol, 1 mg/mL BSA.
(§3) All compounds were prepared to 50x final assay concentration in 100% DMSO. This working stock of the compound was added to the assay well as the first component in the reaction, followed by the remaining components as detailed in the general assay protocols below. There was no pre-incubation step between the compound and the kinase prior to initiation of the reaction.
(§4) TAF1L(h) was incubated with 20 mM Tris/HCl pH 8.5, 0.2 mM EDTA, 250 µM RRRFRPASPLRGPPK (SEQ ID NO. 1), 10 mM magnesium acetate and γ-^33P-ATP (specific activity and concentration as required). The reaction was initiated by the addition of the Mg/ATP mix. After incubation for 120 minutes at room temperature, the reaction was stopped by the addition of phosphoric acid to a concentration of 0.5%. An aliquot of the stopped reaction was spotted onto a filter and washed four times for 4 minutes in 0.425% phosphoric acid and once in methanol prior to drying and scintillation counting.
(§5) Kinase activity data were expressed as the percent remaining kinase activity in tested samples compared to the vehicle (DMSO) reactions. The compounds were tested at the following concentrations: 1 nM, 3 nM, 10 nM, 30 nM, 100 nM, 300 nM, 1000 nM, 3000 nM, and 10 000 nM; IC50 values and curve fits were then obtained.

CDKL4(h) = target: T2, CDKL4(h) (Homo sapiens, UniProt Q5MAI5); assay: radiometric kinase assay (KinaseProfiler, Eurofins), CDKL4; conditions: in vitro radiometric kinase assay, tested at 1 nM to 10 000 nM, no pre-incubation; read-out: inhibitory activities (IC50 values) CDKL4
T2 construct: purchased Eurofins (KinaseProfiler)
Method: as §1, §2, §3
as §4, with “CDKL4(h) was” for “TAF1L(h) was”, “with 8” for “with 20”, “mM MOPS” for “mM Tris/HCl”, “pH 7.0,” for “pH 8.5,”
as §5

Haspin (h) = target: T3, Haspin (h) (Homo sapiens, UniProt Q8TF76); assay: radiometric kinase assay (KinaseProfiler, Eurofins), Haspin; conditions: in vitro radiometric kinase assay, tested at 1 nM to 10 000 nM, no pre-incubation; read-out: inhibitory activities (IC50 values) Haspin
T3 construct: purchased Eurofins (KinaseProfiler)
T3 sequence (Q8TF76 1-798): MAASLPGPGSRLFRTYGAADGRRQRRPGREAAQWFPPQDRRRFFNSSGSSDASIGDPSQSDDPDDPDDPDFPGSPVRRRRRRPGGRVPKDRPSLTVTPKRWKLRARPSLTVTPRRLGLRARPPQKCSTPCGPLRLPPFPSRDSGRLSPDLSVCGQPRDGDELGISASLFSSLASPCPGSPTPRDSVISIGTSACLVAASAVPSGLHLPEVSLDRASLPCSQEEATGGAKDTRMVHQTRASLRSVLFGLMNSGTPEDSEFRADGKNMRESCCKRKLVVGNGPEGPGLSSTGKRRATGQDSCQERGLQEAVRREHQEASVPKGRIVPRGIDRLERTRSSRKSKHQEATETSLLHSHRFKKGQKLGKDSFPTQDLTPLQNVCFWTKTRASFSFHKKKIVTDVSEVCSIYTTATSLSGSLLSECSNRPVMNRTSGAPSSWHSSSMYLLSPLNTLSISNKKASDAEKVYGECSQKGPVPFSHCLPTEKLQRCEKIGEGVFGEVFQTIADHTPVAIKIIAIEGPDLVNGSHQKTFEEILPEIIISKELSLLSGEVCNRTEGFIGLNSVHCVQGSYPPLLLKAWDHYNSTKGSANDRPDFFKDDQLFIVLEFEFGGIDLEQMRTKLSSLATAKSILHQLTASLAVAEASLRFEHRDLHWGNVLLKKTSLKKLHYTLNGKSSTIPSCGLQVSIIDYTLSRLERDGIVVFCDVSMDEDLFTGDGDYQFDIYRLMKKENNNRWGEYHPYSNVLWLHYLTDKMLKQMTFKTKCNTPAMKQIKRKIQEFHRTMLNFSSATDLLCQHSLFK
Method: as §1, §2, §3
Haspin (h) was incubated with 8 mM MOPS pH 7.0, 0.2 mM EDTA, 500 µM RARTLSFAEPG (SEQ ID NO. 3), 10 mM magnesium acetate and γ-^33P-ATP (specific activity and concentration as required). The reaction was initiated by the addition of the Mg/ATP mix. After incubation for 40 minutes at room temperature, the reaction was stopped by the addition of phosphoric acid to a concentration of 0.5%. An aliquot of the reaction was then spotted onto a filter and washed four times for 4 minutes in 0.425% phosphoric acid and once in methanol prior to drying and scintillation counting.
as §5

T1 sequence (Q8IZX4 whole entry): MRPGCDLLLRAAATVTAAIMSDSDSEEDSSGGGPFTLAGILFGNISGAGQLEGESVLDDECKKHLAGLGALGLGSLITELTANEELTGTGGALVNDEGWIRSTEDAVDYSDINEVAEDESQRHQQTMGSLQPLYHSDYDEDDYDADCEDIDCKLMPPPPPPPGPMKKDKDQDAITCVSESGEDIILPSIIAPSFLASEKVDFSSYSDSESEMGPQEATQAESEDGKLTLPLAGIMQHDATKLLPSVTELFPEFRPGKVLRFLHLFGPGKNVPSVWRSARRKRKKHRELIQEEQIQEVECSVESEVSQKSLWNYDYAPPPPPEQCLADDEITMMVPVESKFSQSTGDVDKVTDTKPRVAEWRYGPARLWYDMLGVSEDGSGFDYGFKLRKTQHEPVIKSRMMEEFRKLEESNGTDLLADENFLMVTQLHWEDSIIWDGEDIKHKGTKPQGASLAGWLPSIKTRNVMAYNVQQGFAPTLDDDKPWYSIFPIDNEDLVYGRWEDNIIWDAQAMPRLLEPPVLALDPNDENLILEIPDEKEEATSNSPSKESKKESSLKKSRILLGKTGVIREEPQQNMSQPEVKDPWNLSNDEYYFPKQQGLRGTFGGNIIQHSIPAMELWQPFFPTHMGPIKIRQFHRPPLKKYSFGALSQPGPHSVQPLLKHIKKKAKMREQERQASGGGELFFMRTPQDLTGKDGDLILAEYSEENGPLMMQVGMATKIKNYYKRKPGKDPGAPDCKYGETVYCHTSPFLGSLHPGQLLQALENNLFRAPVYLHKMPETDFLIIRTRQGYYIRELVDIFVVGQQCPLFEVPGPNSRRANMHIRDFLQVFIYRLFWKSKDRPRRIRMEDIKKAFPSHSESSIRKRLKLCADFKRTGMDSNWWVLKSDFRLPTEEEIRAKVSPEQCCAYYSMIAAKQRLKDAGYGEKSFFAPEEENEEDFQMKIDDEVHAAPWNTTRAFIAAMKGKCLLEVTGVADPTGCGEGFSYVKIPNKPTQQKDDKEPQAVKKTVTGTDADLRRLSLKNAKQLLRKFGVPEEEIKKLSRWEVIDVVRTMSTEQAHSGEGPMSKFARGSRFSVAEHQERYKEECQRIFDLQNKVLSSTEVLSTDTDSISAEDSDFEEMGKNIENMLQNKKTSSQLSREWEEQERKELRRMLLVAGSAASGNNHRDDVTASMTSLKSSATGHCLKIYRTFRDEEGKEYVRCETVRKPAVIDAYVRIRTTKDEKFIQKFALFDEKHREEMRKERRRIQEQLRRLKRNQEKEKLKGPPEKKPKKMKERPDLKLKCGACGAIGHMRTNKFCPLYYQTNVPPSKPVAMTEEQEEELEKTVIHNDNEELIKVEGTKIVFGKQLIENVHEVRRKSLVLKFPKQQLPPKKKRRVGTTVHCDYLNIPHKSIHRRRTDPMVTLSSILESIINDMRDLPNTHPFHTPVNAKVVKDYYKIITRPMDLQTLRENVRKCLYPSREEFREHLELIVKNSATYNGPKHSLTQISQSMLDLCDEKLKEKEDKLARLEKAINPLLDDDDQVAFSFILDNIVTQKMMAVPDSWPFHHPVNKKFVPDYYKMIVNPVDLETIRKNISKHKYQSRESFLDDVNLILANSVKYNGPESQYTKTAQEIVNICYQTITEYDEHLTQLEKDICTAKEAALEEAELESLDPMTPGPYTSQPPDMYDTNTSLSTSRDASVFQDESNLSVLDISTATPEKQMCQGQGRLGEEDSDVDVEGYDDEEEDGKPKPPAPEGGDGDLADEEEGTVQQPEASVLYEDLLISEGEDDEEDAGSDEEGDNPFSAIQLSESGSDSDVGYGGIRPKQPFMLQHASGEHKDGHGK
T2 sequence (Q5MAI5 whole entry): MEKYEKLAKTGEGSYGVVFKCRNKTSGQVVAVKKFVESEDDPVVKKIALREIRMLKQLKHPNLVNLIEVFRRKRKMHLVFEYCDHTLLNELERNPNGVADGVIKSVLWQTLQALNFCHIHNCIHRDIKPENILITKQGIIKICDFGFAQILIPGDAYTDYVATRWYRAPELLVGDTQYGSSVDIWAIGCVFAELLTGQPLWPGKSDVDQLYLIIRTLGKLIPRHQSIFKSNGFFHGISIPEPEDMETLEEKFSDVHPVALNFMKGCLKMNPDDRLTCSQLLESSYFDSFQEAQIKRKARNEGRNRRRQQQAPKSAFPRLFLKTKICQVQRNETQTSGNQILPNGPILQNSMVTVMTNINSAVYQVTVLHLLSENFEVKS

IC50 (TAF1L(h))	IC50 (CDKL4(h))	IC50 (Haspin (h))	Structure (SMILES)
100 to 499 nM	100 to 499 nM	100 to 499 nM	Cn1cc(-c2ccc3scc(-c4cnn(C)c4)c3n2)cn1 [Preparative Example 63, 3,5-bis(1-methyl-1H-pyrazol-4-yl)thieno[3,2-b]pyridine]
500 to 3000 nM	500 to 3000 nM	500 to 3000 nM	CCn1cc(-c2ccc3scc(-c4ccncc4)c3n2)cn1 [Preparative Example 77, 5-(1-ethyl-1H-pyrazol-4-yl)-3-(pyridin-4-yl)thieno[3,2-b]pyridine]
100 to 499 nM	100 to 499 nM	20 to 99 nM	Cn1cc(-c2ccc3scc(-c4ccncc4)c3n2)cn1 [Preparative Example 13, 5-(1-methyl-1H-pyrazol-4-yl)-3-(pyridin-4-yl)thieno[3,2-b]pyridine]
500 to 3000 nM	500 to 3000 nM	3000 to 10000 nM	Cn1cc(-c2ccc3scc(-c4ccncc4)c3n2)c(N)n1 [Preparative Example 84, 1-methyl-4-(3-(pyridin-4-yl)thieno[3,2-b]pyridin-5-yl)-1H-pyrazol-3-amine]
500 to 3000 nM	500 to 3000 nM	100 to 499 nM	Cn1ccc(-c2cc(Cl)c3scc(-c4ccncc4)c3n2)n1 [Preparative Example 163, 7-chloro-5-(1-methyl-1H-pyrazol-3-yl)-3-(pyridin-4-yl)thieno[3,2-b]pyridine]
500 to 3000 nM	3000 to 10000 nM	500 to 3000 nM	Cn1cc(-c2ccc3scc(-c4ccncc4)c3n2)nn1 [Preparative Example 93, 5-(1-methyl-1H-1,2,3-triazol-4-yl)-3-(pyridin-4-yl)thieno[3,2-b]pyridine]
100 to 499 nM	100 to 499 nM	100 to 499 nM	Cc1cc(-c2csc3ccc(-c4cnn(C)c4)nc23)cc(C)n1 [Preparative Example 30, 3-(2,6-dimethylpyridin-4-yl)-5-(1-methyl-1H-pyrazol-4-yl)thieno-[3,2-b]pyridine]
500 to 3000 nM	500 to 3000 nM	500 to 3000 nM	Cn1ncc(-c2ccc3scc(-c4ccncc4)c3n2)n1 [Preparative Example 94, 5-(2-methyl-2H-1,2,3-triazol-4-yl)-3-(pyridin-4-yl)thieno[3,2-b]pyridine]
3000 to 10000 nM	3000 to 10000 nM	3000 to 10000 nM	c1ccc(-c2csc3ccc(-c4ccoc4)nc23)cc1 [Preparative Example 123, 5-(furan-3-yl)-3-phenylthieno[3,2-b]pyridine]
20 to 99 nM	100 to 499 nM	20 to 99 nM	Cn1cc(-c2ccc3scc(-c4cncs4)c3n2)cn1 [Preparative Example 69, 5-(1-methyl-1H-pyrazol-4-yl)-3-(thiazol-5-yl)thieno[3,2-b]pyridine]
100 to 499 nM	100 to 499 nM	100 to 499 nM	Cn1cc(-c2ccc3scc(-c4ccnc(F)c4)c3n2)cn1 [Preparative Example 22, 3-(2-fluoropyridin-4-yl)-5-(1-methyl-1H-pyrazol-4-yl)thieno[3,2-b]pyridine]
100 to 499 nM	100 to 499 nM	100 to 499 nM	Cn1cc(-c2ccc3scc(-c4ccncc4F)c3n2)cn1 [Preparative Example 36, 3-(3-fluoropyridin-4-yl)-5-(1-methyl-1H-pyrazol-4-yl)thieno[3,2-b]pyridine]
20 to 99 nM	20 to 99 nM	20 to 99 nM	Cn1cc(-c2ccc3scc(-c4ccns4)c3n2)cn1 [Preparative Example 67, 3-(isothiazol-5-yl)-5-(1-methyl-1H-pyrazol-4-yl)thieno[3,2-b]pyridine]
500 to 3000 nM	3000 to 10000 nM	500 to 3000 nM	Cn1cc(-c2ccc3scc(-c4ccncc4C#N)c3n2)cn1 [Preparative Example 34, 4-(5-(1-methyl-1H-pyrazol-4-yl)thieno[3,2-b]pyridin-3-yl)nicotino-nitrile]
500 to 3000 nM	500 to 3000 nM	100 to 499 nM	COc1cc(-c2ccn(C)n2)nc2c(-c3ccncc3)csc12 [Preparative Example 165, 7-methoxy-5-(1-methyl-1H-pyrazol-3-yl)-3-(pyridin-4-yl)thieno[3,2-b]pyridine]
500 to 3000 nM	500 to 3000 nM	20 to 99 nM	Cn1cc(-c2ccc3scc(-c4ccnc(CN)c4)c3n2)cn1 [Preparative Example 28, (4-(5-(1-methyl-1H-pyrazol-4-yl)thieno[3,2-b]pyridin-3-yl)pyridin-2-yl)methanamine]
500 to 3000 nM	500 to 3000 nM	100 to 499 nM	Cn1ncc(-c2ccc3scc(-c4ccncc4)c3n2)c1CC1CC1 [Preparative Example 82, 5-(5-(cyclopropylmethyl)-1-methyl-1H-pyrazol-4-yl)-3-(pyridin-4-yl)thieno[3,2-b]pyridine]
100 to 499 nM	100 to 499 nM	100 to 499 nM	Cn1cc(-c2ccc3scc(-c4ccccc4)c3n2)cn1 [Preparative Example 2, 5-(1-methyl-1H-pyrazol-4-yl)-3-phenylthieno[3,2-b]pyridine]
3000 to 10000 nM	3000 to 10000 nM	500 to 3000 nM	CC(C)n1cc(-c2ccc3scc(-c4ccncc4)c3n2)cn1 [Preparative Example 79, 5-(1-isopropyl-1H-pyrazol-4-yl)-3-(pyridin-4-yl)thieno[3,2-b]pyridine]
500 to 3000 nM	3000 to 10000 nM	20 to 99 nM	Cn1ccc(-c2ccc3scc(-c4ccncc4)c3n2)n1 [Preparative Example 86, 5-(1-methyl-1H-pyrazol-3-yl)-3-(pyridin-4-yl)thieno[3,2-b]pyridine]
500 to 3000 nM	500 to 3000 nM	20 to 99 nM	Cn1ccc(Nc2ccc3scc(-c4ccncc4)c3n2)n1 [Preparative Example 99, N-(1-methyl-1H-pyrazol-3-yl)-3-(pyridin-4-yl)thieno[3,2-b]pyridin-5-amine]

Structure (SMILES)	IC50 (TAF1L(h))	IC50 (CDKL4(h))	IC50 (Haspin (h))
Cn1cc(-c2ccc3scc(C4=CCNCC4)c3n2)cn1 [Preparative Example 9, 5-(1-methyl-1H-pyrazol-4-yl)-3-(1,2,3,6-tetrahydropyridin-4-yl)-thieno[3.2-b]pyridine]	500 to 3000 nM	500 to 3000 nM	500 to 3000 nM
Cn1cc(-c2ccc3scc(C(O)c4ccccc4)c3n2)cn1 (stereo not drawn) [Preparative Example 74]	100 to 499 nM	100 to 499 nM	3000 to 10000 nM

Source: patent publication EP4483954A1 (Masarykova Univerzita, priority 2023, dated 2025)
